Assay [1] deals with DLD-1 wild-type colorectal adenocarcinoma cells. The assay can be described thus: Cell viability assay (Cell Titer-Glo), DLD-1 wild-type. The following applies: Homo sapiens, DLD-1, 168 h, 7 days, 50 cells/well. It counts as cell-based. An excerpt: (§1) In some embodiments, the biological assay measures the effects that compounds of the present disclosure may have on the viability of cells, e.g., the viability of cancer cells. In some embodiments, DLD-1 wild-type and DLD-1 BRCA2(−/−) colorectal adenocarcinoma cells, an isogenic pair of cell lines differing in the presence and absence, respectively, of both BRCA2 alleles, are used to measure the effect of the disclosed compounds on the viability of cancer cells.
(§2) In some embodiments, the cells are harvested during the logarithmic growth period, counted, and seeded at a specified count in the wells of a 96- or 384-well cell culture plate. In some embodiments, after seeding, the cells are incubated, e.g., at 37° C., 5% CO2 overnight. In some embodiments, the cells are treated with compounds, e.g., with serially diluted test compounds at 8-11 concentrations within a desired concentration range, e.g., from 1 nM-10 μM, for the generation of dose-response curves. In some embodiments, the plate is further incubated, e.g., for another 3-7 days in a humidified incubator at 37° C. and 5% CO2. In some embodiments, cell viability is assessed by luminescence measurement after addition of Cell Titer-Glo reagent (Promega, Madison, Wis.) according to the manufacturer's instructions. In some embodiments, cell viability IC50 values are calculated using XLFit, equation 201: y=A+((B−A)/(1+((x/C)^D))), where A=bottom, B=top, C=IC50, and D=slope. In some embodiments, the effects of the test compounds on the viability of other cell lines such as MDA-MB-436, MDA-MB-231, SUM149PT, HCC1395, and UWB1.289 are determined in an analogous method.
(§3) Compounds of the present disclosure were tested for their effects on the viability of cancer cells. DLD-1 wild-type and DLD-1 BRCA2(−/−) colorectal adenocarcinoma cells, an isogenic pair of cell lines differing in the presence and absence, respectively, of both BRCA2 alleles, were used. The cells were harvested during the logarithmic growth period, counted, and seeded at 50 cells/well for DLD-1 wild-type and 200 cells/well for DLD-1 BRCA2(−/−) in a 384-well cell culture plate. After seeding, cells were incubated at 37° C., 5% CO2 overnight. Cells were treated with serially diluted test compounds at 10 concentrations from 1.5 nM-30 μM) for generation of dose response curves. The plate was further incubated for another 7 days in a humidified incubator at 37° C. and 5% CO2. Cell viability was assessed by luminescence measurement after addition of Cell Titer-Glo reagent (Promega, Madison, Wis.) according to the manufacturer's instructions. Cell viability IC50 values were calculated using XLFit, equation 201: y=A+((B−A)/(1+((x/C)^D))), where A=bottom, B=top, C=IC50, and D=slope. IC50 values are shown in Table B and are presented in ranges, in which “+++”<300 nM, 300 nM≤“++”<3000 nM, and “+”≥3000 nM. Effects of the test compounds on the viability of other cell lines such as MDA-MB-436, MDA-MB-231, SUM149PT, HCC1395, and UWB1.289 are determined in an analogous method.

The next assay deals with recombinant human PARP1 (Homo sapiens, UniProt P09874). The assay can be described thus: PARP1 fluorescence polarization binding assay. The following applies: binding IC50, GST-tagged PARP1 20 nM, PARPi-FL probe 3 nM, 4 h at RT. On the procedure: In some embodiments, the biological assay is described in the Examples herein. In some embodiments, the biological assay measures PARP-1 binding by way of fluorescence polarization measurements. In some embodiments, binding of a test compound to recombinant human PARP-1 reduces the amount of binding of a fluorescent probe, and consequently reduces the detected level of fluorescence polarization. In some test compound stock solutions are prepared in a solvent, e.g., DMSO, and are serially diluted into a range of concentrations, e.g., 15 concentrations, 14 concentrations, 13 concentrations, 12 concentrations, 11 concentrations, 10 concentrations, 9 concentrations, 8 concentrations, 7 concentrations, 6 concentrations, or 5 concentrations, by a dilution factor, e.g., a 10-fold dilution factor, a 9-fold dilution factor, an 8-fold dilution factor, a 7-fold dilution factor, a 6-fold dilution factor, a 5-fold dilution factor, a 4-fold dilution factor, a 3-fold dilution factor, or a 2-fold dilution factor. In some embodiments, the serial dilutions, e.g., 100 nL of serial dilution, 90 nL of serial dilution, 80 nL of serial dilution, 70 nL of serial dilution, 60 nL of serial dilution, 50 nL of serial dilution, 30 nL of serial dilution, 20 nL of serial dilution, or 10 nL of serial dilution, are added to a multi-welled plate, e.g., a 1536-well plate, a 384-well plate, or a 96-well plate. In some embodiments, PARP-1, e.g., GST-tagged PARP-1, is diluted in assay buffer, e.g., 50 μL of assay buffer, 40 μL of assay buffer, e.g., 30 μL of assay buffer, 20 μL of assay buffer, 10 μL of assay buffer, or 5 μL of assay buffer, and is added to the plate. In some embodiments, the plate is centrifuged, e.g., at 1000 rpm for 1 min, and incubated, e.g., incubated for 30 minutes at room temperature (RT). In some embodiments, a fluorescent probe, e.g., 10 μL of 6 nM PARPi-FL (TOCRIS, Cat #6461), is diluted in an assay buffer and is added to the plate. In some embodiments, the final concentrations of PARP-1 and fluorescent probe are 20 nM and 3 nM, respectively, in a total volume of 20 μL. In some embodiments, the plate is centrifuged, e.g., at 1000 rpm for 1 minute, and the assay plate is incubated, e.g., for 4 h at RT. In some embodiments, the samples in each well are read using a plate reader, e.g., an Envision instrument using excitation=480 nm, and emission wavelength=FITC FP-P pol 535 nm & FITC FP-S pol 535 nm). In some embodiments, percent inhibition is calculated from mP values using Inhibition (%)=[1−(mPc−mPL)/(mPH−mPL)]×100%, where mPc, mPL, and mPH are the mP values of test compound, Low controls, and High controls, respectively. In some embodiments, binding IC50 values are calculated using XLFit (equation 201: y=A+((B−A)/(1+((x/C)^D))), where A=bottom, B=top, C=IC50, and D=slope) with a floating top and bottom for curves.
recombinant human PARP1, sequence (P09874 whole entry): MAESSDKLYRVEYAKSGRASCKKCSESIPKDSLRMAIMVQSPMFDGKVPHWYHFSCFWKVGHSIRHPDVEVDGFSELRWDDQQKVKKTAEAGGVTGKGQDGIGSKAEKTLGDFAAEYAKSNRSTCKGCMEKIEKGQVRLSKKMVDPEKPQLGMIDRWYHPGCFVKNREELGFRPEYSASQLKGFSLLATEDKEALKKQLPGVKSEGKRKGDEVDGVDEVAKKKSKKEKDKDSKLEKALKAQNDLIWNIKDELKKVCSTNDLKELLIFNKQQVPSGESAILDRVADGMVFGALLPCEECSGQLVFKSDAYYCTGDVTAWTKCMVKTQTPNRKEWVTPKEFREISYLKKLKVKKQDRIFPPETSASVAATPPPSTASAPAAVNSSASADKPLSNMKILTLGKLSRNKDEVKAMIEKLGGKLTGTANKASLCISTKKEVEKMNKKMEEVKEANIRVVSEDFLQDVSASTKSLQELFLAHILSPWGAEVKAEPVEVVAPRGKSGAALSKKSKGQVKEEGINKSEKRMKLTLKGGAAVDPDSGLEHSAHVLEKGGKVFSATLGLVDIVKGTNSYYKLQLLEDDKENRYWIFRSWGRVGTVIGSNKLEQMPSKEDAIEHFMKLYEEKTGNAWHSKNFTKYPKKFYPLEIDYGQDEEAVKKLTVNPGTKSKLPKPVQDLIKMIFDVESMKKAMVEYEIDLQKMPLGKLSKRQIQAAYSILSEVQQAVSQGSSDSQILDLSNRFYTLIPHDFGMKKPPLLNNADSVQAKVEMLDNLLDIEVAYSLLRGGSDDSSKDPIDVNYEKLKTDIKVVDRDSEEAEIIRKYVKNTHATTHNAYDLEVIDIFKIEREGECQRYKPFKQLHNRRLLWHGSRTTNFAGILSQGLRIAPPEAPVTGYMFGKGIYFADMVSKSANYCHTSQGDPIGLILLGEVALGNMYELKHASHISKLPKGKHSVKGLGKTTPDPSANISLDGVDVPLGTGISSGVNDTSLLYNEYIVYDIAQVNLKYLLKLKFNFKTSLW
Compounds of the present disclosure were tested in a PARP1 fluorescence polarization binding assay at Pharmaron (Beijing, P.R. China). In this biochemical assay, binding of test compound to recombinant human PARP1 reduces the amount of binding of a fluorescent probe, and consequently reduces the detected level of fluorescence polarization. Test compound stock solutions were prepared in DMSO and then serially diluted into 10 concentrations by 3-fold dilution in a 384-well plate using a TECAN EVO200. 60 nL of each dilution was transferred to the plate using an Echo550 (Labcyte), and then 10 μL 40 nM GST-tagged PARP1 (BPS Bioscience, Cat #80501), diluted in assay buffer (50 mM Tris pH 8.0, 0.001% Triton X-100, 10 mM MgCl2, 150 mM NaCl), was added to the plate. After a centrifugation at 1000 rpm for 1 min, the assay plate was incubated for 30 min at RT. 10 μL 6 nM PARPi-FL (TOCRIS, Cat #6461), diluted using assay buffer, was then added to the plate. The final concentrations of PARP1 and PARPi-FL were 20 nM and 3 nM, respectively, in a total volume of 20 μL. […]

The test system of assay [2] is DLD-1 BRCA2(−/−) colorectal adenocarcinoma cells. The assay can be described thus: Cell viability assay (Cell Titer-Glo), DLD-1 BRCA2(−/−). Format: cell-based. The settings on record: Homo sapiens, DLD-1, 168 h, 7 days, 200 cells/well.
Description: as §1, §2, §3

Each structure is given as a SMILES string. Structures can show the parent of a compound that is named as a salt.

For `CCc1cc2ncc(CN3C4CCC3CN(c3ccc(C(=O)NC)nc3)C4)cc2[nH]c1=O` [Compound No. 3, 5-(8-((7-ethyl-6-oxo-5,6-dihydro-1,5-naphthyridin-3-yl)methyl)-3,8-diazabicyclo[3.2.1]octan-3-yl)-N-methylpicolinamide], the half-inhibitory concentration (IC50) in assay [1] is ≥ 3000 nM; on recombinant human PARP1 it was < 100 nM; in assay [2] it was 300 to 3000 nM.

`CCc1cc2ncc(CN3CC4CCC(C3)N4c3ccc(C(=O)NC)nc3)cc2[nH]c1=O` [Compound No. 8, 5-(3-((7-ethyl-6-oxo-5,6-dihydro-1,5-naphthyridin-3-yl)methyl)-3,8-diazabicyclo[3.2.1]octan-8-yl)-N-methylpicolinamide]: the IC50 was ≥ 3000 nM in assay [1], 100 to 3000 nM at recombinant human PARP1 and ≥ 3000 nM in assay [2].

Consider `CCc1cc2ncc(CN3CC4(C3)CN(c3ccc(C(=O)NC)nc3C)C4)cc2[nH]c1=O` [Compound No. 139, 5-(6-((7-ethyl-6-oxo-5,6-dihydro-1,5-naphthyridin-3-yl)methyl)-2,6-diazaspiro[3.3]heptan-2-yl)-N,6-dimethylpicolinamide formate], for which the IC50 is ≥ 3000 nM in assay [1], 100 to 3000 nM on recombinant human PARP1 and ≥ 3000 nM in assay [2].

With `CCc1cc2ncc(CN3CC4(C3)CN(C(=O)c3ccc(F)cc3F)C4)cc2[nH]c1=O` [Compound No. 181, 7-({6-[(2,4-difluorophenyl)carbonyl]-2,6-diazaspiro[3.3]heptan-2-yl}methyl)-3-ethyl-1H-1,5-naphthyridin-2-one formate], the IC50 (in assay [1]; at recombinant human PARP1; in assay [2]) was ≥ 3000 nM throughout.

(Values after patent US20240132522A1, “HETEROCYCLIC COMPOUNDS AND METHODS OF USE THEREOF” (1cBio, Inc., priority 2022, published 2024).)
